According to patent US20220400680A1, “USE OF ACYLCYANAMIDES OR SALTS THEREOF FOR REGULATING PLANT GROWTH” (Alzchem Trostberg GmbH, priority 2019, published 2022):

How the values were obtained:
[1] = test system: Table apple, type Zabergäu-Renette (C2); test: Greenhouse test, cut apple branches C2 dipped in test solution, bud development stage; assay type: in vivo, Malus domestica; design: key to Bud development stage, apple branches C2: Stage 0: Buds unchanged; Stage 1: Buds slightly swollen, first green tips visible; Stage 2: strongly swollen, green buds; Stage 3: Buds before breaking open, leaf or flower root already visible; Stage 4: Flower buds fully developed, but still closed, white petals already visible. In the case of the grapevine, stage 4 was the unfolding of the first leaves; Stage 5: Flowers fully open or, in the case of grapevine, unfolding of the flower roots (“Gescheine”) on the fully leafed sprouts; conditions: for Dormancy-breaking effect according to the definition, apple C2: stage 4 reached or exceeded after 36 days vs negative control
Method in brief: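 Cut branches held in water jars in a greenhouse at about 22° C. under natural light after dipping in aqueous test solution: 0.15 mol substance (0.075 mol for bis-cyanamides) plus 0.15 g BreakThru OE-446 per 500 g. Bud development scored on a stage scale from closed buds to fully open flowers.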

[2] = test system: Table apple, type Boiken apple (C1); test: Greenhouse test, cut apple branches C1 dipped in test solution, bud development stage; assay type: in vivo, Malus domestica; design: key to Bud development stage, apple branches C1: Stage 0: Buds unchanged; Stage 1: Buds slightly swollen, first green tips visible; Stage 2: strongly swollen, green buds; Stage 3: Buds before breaking open, leaf or flower root already visible; Stage 4: Flower buds fully developed, but still closed, white petals already visible. In the case of the grapevine, stage 4 was the unfolding of the first leaves; Stage 5: Flowers fully open or, in the case of grapevine, unfolding of the flower roots (“Gescheine”) on the fully leafed sprouts; conditions: for Good to very good dormancy-breaking effect, apple C1: stage 4 reached or exceeded after 27 days vs negative control; for Dormancy-breaking effect according to the definition, apple C1: stage 4 reached or exceeded after 36 days vs negative control
Method in brief: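 Cut Boiken apple branches kept in water jars in a greenhouse at about 22 °C under natural light and dipped in test solution. Solutions contained 0.15 mol test substance (0.075 mol for bis-cyanamides) plus 0.15 g BreakThru OE-446 per 500 g water. Bud development scored on a stage scale up to full flowering.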

[3] = test system: Grape, type Pinot Noir (C4); test: Greenhouse test, cut wine sprouts C4 dipped in test solution, bud development stage; assay type: in vivo, Vitis vinifera subsp. vinifera; design: key to Bud development stage, wine sprouts C4: Stage 0: Buds unchanged; Stage 1: Buds slightly swollen, first green tips visible; Stage 2: strongly swollen, green buds; Stage 3: Buds before breaking open, leaf or flower root already visible; Stage 4: Flower buds fully developed, but still closed, white petals already visible. In the case of the grapevine, stage 4 was the unfolding of the first leaves; Stage 5: Flowers fully open or, in the case of grapevine, unfolding of the flower roots (“Gescheine”) on the fully leafed sprouts; conditions: for Dormancy-breaking effect according to the definition, wine C4: stage 4 reached or exceeded after 36 days vs negative control
Method in brief: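 Cut Pinot Noir grapevine sprouts were dipped in aqueous test solution (0.15 mol test substance, or 0.075 mol for bis-cyanamides, plus 0.15 g BreakThru OE-446 per 500 g total) and kept in water jars at about 22° C under natural light. Bud development was scored on a staged scale from closed buds to fully open flowers.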

[4] = test system: Table cherry, type Burlat (C3); test: Greenhouse test, cut cherry branches C3 dipped in test solution, bud development stage; assay type: in vivo, Prunus avium; design: key to Bud development stage, cherry branches C3: Stage 0: Buds unchanged; Stage 1: Buds slightly swollen, first green tips visible; Stage 2: strongly swollen, green buds; Stage 3: Buds before breaking open, leaf or flower root already visible; Stage 4: Flower buds fully developed, but still closed, white petals already visible. In the case of the grapevine, stage 4 was the unfolding of the first leaves; Stage 5: Flowers fully open or, in the case of grapevine, unfolding of the flower roots (“Gescheine”) on the fully leafed sprouts
Method in brief: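 Cut branches kept in water jars in a greenhouse at about 22° C. under natural light after dipping in aqueous solution of 0.15 mol test substance (0.075 mol for bis-cyanamides) plus 0.15 g BreakThru OE-446 per 500 g. Bud development scored on a stage scale from closed buds to fully open flowers.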

[5] = T1 (14 d), 0.15 mol (A-14, A-15: 0.075 mol) per 500 g solution
[6] = stage 4 reached or exceeded after 27 days vs negative control

CCC(=O)NC#N.[Na] [Example A-5, Sodium propionyl cyanamide]
melting point: 143 °C (dec.) | Bud development stage, apple branches C2 [1, 5]: 0 | Bud development stage, apple branches C2 ([1]; T2 (16 d)): 0 | Bud development stage, apple branches C2 ([1]; T3 (21 d)): 0 | Bud development stage, apple branches C2 ([1]; T4 (27 d)): 1 | Bud development stage, apple branches C2 ([1]; T5 (36 d)): 3 | Bud development stage, apple branches C2 ([1]; T6 (56 d)): 4 | Bud development stage, apple branches C1 [2, 5]: 2 | Bud development stage, apple branches C1 ([2]; T2 (16 d)): 2 | Bud development stage, apple branches C1 ([2]; T3 (21 d)): 4 | Bud development stage, apple branches C1 ([2]; T4 (27 d)): 5 | Bud development stage, apple branches C1 ([2]; T5 (36 d)): 5 | Bud development stage, apple branches C1 ([2]; T6 (56 d)): 5 | Good to very good dormancy-breaking effect, apple C1 [2]: good to very good dormancy-breaking effect | Dormancy-breaking effect according to the definition, apple C1 [2]: dormancy-breaking effect | Bud development stage, wine sprouts C4 [3, 5]: 0 | Bud development stage, wine sprouts C4 ([3]; T2 (16 d)): 0 | Bud development stage, wine sprouts C4 ([3]; T3 (21 d)): 0 | Bud development stage, wine sprouts C4 ([3]; T4 (27 d)): 1 | Bud development stage, wine sprouts C4 ([3]; T5 (36 d)): 3 | Bud development stage, wine sprouts C4 ([3]; T6 (56 d)): 5 | Bud development stage, cherry branches C3 [4, 5]: 1 | Bud development stage, cherry branches C3 ([4]; T2 (16 d)): 2 | Bud development stage, cherry branches C3 ([4]; T3 (21 d)): 4 | Bud development stage, cherry branches C3 ([4]; T4 (27 d)): 4 | Bud development stage, cherry branches C3 ([4]; T5 (36 d)): 4 | Bud development stage, cherry branches C3 ([4]; T6 (56 d)): 5 | Good to very good dormancy-breaking effect, cherry C3 ([4]; stage 4 reached or exceeded after 21 days vs negative control): good to very good dormancy-breaking effect | Dormancy-breaking effect according to the definition, cherry C3 [4, 6]: dormancy-breaking effect

CC(C)C(=O)NC#N.[Na] [Example A-7, Sodium isobutyryl cyanamide]
melting point: 127 to 133 °C | Bud development stage, apple branches C2 [1, 5]: 0 | Bud development stage, apple branches C2 ([1]; T2 (16 d)): 0 | Bud development stage, apple branches C2 ([1]; T3 (21 d)): 1 | Bud development stage, apple branches C2 ([1]; T4 (27 d)): 1 | Bud development stage, apple branches C2 ([1]; T5 (36 d)): 5 | Bud development stage, apple branches C2 ([1]; T6 (56 d)): 5 | Dormancy-breaking effect according to the definition, apple C2 [1]: dormancy-breaking effect | Bud development stage, apple branches C1 [2, 5]: 2 | Bud development stage, apple branches C1 ([2]; T2 (16 d)): 3 | Bud development stage, apple branches C1 ([2]; T3 (21 d)): 4 | Bud development stage, apple branches C1 ([2]; T4 (27 d)): 5 | Bud development stage, apple branches C1 ([2]; T5 (36 d)): 5 | Bud development stage, apple branches C1 ([2]; T6 (56 d)): 5 | Good to very good dormancy-breaking effect, apple C1 [2]: good to very good dormancy-breaking effect | Dormancy-breaking effect according to the definition, apple C1 [2]: dormancy-breaking effect | Bud development stage, wine sprouts C4 [3, 5]: 0 | Bud development stage, wine sprouts C4 ([3]; T2 (16 d)): 0 | Bud development stage, wine sprouts C4 ([3]; T3 (21 d)): 0 | Bud development stage, wine sprouts C4 ([3]; T4 (27 d)): 2 | Bud development stage, wine sprouts C4 ([3]; T5 (36 d)): 5 | Bud development stage, wine sprouts C4 ([3]; T6 (56 d)): 5 | Dormancy-breaking effect according to the definition, wine C4 [3]: dormancy-breaking effect | Bud development stage, cherry branches C3 [4, 5]: 0 | Bud development stage, cherry branches C3 ([4]; T2 (16 d)): 0 | Bud development stage, cherry branches C3 ([4]; T3 (21 d)): 1 | Bud development stage, cherry branches C3 ([4]; T4 (27 d)): 2 | Bud development stage, cherry branches C3 ([4]; T5 (36 d)): 4 | Bud development stage, cherry branches C3 ([4]; T6 (56 d)): 5

Cc1ccc(C(=O)NC#N)cc1.[Na] [Example A-13, Sodium-4-methyl-benzoyl-cyanamide]
melting point: 340 °C (dec.) | Bud development stage, apple branches C2 [1, 5]: 0 | Bud development stage, apple branches C2 ([1]; T2 (16 d)): 0 | Bud development stage, apple branches C2 ([1]; T3 (21 d)): 1 | Bud development stage, apple branches C2 ([1]; T4 (27 d)): 3 | Bud development stage, apple branches C2 ([1]; T5 (36 d)): 3 | Bud development stage, apple branches C2 ([1]; T6 (56 d)): 5 | Bud development stage, apple branches C1 [2, 5]: 0 | Bud development stage, apple branches C1 ([2]; T2 (16 d)): 0 | Bud development stage, apple branches C1 ([2]; T3 (21 d)): 0 | Bud development stage, apple branches C1 ([2]; T4 (27 d)): 1 | Bud development stage, apple branches C1 ([2]; T5 (36 d)): 4 | Bud development stage, apple branches C1 ([2]; T6 (56 d)): 4 | Dormancy-breaking effect according to the definition, apple C1 [2]: dormancy-breaking effect | Bud development stage, wine sprouts C4 [3, 5]: 0 | Bud development stage, wine sprouts C4 ([3]; T2 (16 d)): 0 | Bud development stage, wine sprouts C4 ([3]; T3 (21 d)): 0 | Bud development stage, wine sprouts C4 ([3]; T4 (27 d)): 1 | Bud development stage, wine sprouts C4 ([3]; T5 (36 d)): 3 | Bud development stage, wine sprouts C4 ([3]; T6 (56 d)): 5 | Bud development stage, cherry branches C3 [4, 5]: 0 | Bud development stage, cherry branches C3 ([4]; T2 (16 d)): 0 | Bud development stage, cherry branches C3 ([4]; T3 (21 d)): 0 | Bud development stage, cherry branches C3 ([4]; T4 (27 d)): 1 | Bud development stage, cherry branches C3 ([4]; T5 (36 d)): 2 | Bud development stage, cherry branches C3 ([4]; T6 (56 d)): 5

N#CNC(=O)CCCCC(=O)NC#N.[Na].[Na] [Example A-15, Disodium-(5-(cyano-amidocarbonyl)-pentanoyl-cyanamide)]
Bud development stage, apple branches C2 [1, 5]: 0 | Bud development stage, apple branches C2 ([1]; T2 (16 d)): 0 | Bud development stage, apple branches C2 ([1]; T3 (21 d)): 1 | Bud development stage, apple branches C2 ([1]; T4 (27 d)): 5 | Bud development stage, apple branches C2 ([1]; T5 (36 d)): 5 | Bud development stage, apple branches C2 ([1]; T6 (56 d)): 5 | Good to very good dormancy-breaking effect, apple C2 [1, 6]: good to very good dormancy-breaking effect | Dormancy-breaking effect according to the definition, apple C2 [1]: dormancy-breaking effect | Bud development stage, apple branches C1 [2, 5]: 0 | Bud development stage, apple branches C1 ([2]; T2 (16 d)): 0 | Bud development stage, apple branches C1 ([2]; T3 (21 d)): 1 | Bud development stage, apple branches C1 ([2]; T4 (27 d)): 2 | Bud development stage, apple branches C1 ([2]; T5 (36 d)): 3 | Bud development stage, apple branches C1 ([2]; T6 (56 d)): 4 | Bud development stage, wine sprouts C4 [3, 5]: 0 | Bud development stage, wine sprouts C4 ([3]; T2 (16 d)): 0 | Bud development stage, wine sprouts C4 ([3]; T3 (21 d)): 0 | Bud development stage, wine sprouts C4 ([3]; T4 (27 d)): 1 | Bud development stage, wine sprouts C4 ([3]; T5 (36 d)): 4 | Bud development stage, wine sprouts C4 ([3]; T6 (56 d)): 5 | Dormancy-breaking effect according to the definition, wine C4 [3]: dormancy-breaking effect | Bud development stage, cherry branches C3 [4, 5]: 0 | Bud development stage, cherry branches C3 ([4]; T2 (16 d)): 1 | Bud development stage, cherry branches C3 ([4]; T3 (21 d)): 1 | Bud development stage, cherry branches C3 ([4]; T4 (27 d)): 1 | Bud development stage, cherry branches C3 ([4]; T5 (36 d)): 2 | Bud development stage, cherry branches C3 ([4]; T6 (56 d)): 4

N#CN [cyanamide]
Bud development stage, apple branches C2 [1, 5]: 0 | Bud development stage, apple branches C2 ([1]; T2 (16 d)): 0 | Bud development stage, apple branches C2 ([1]; T3 (21 d)): 3 | Bud development stage, apple branches C2 ([1]; T4 (27 d)): 4 | Bud development stage, apple branches C2 ([1]; T5 (36 d)): 5 | Bud development stage, apple branches C2 ([1]; T6 (56 d)): 5 | Bud development stage, apple branches C1 [2, 5]: 3 | Bud development stage, apple branches C1 ([2]; T2 (16 d)): 4 | Bud development stage, apple branches C1 ([2]; T3 (21 d)): 5 | Bud development stage, apple branches C1 ([2]; T4 (27 d)): 5 | Bud development stage, apple branches C1 ([2]; T5 (36 d)): 5 | Bud development stage, apple branches C1 ([2]; T6 (56 d)): 5 | Bud development stage, wine sprouts C4 [3, 5]: 0 | Bud development stage, wine sprouts C4 ([3]; T2 (16 d)): 0 | Bud development stage, wine sprouts C4 ([3]; T3 (21 d)): 2 | Bud development stage, wine sprouts C4 ([3]; T4 (27 d)): 5 | Bud development stage, wine sprouts C4 ([3]; T5 (36 d)): 5 | Bud development stage, wine sprouts C4 ([3]; T6 (56 d)): 5 | Bud development stage, cherry branches C3 [4, 5]: 2 | Bud development stage, cherry branches C3 ([4]; T2 (16 d)): 4 | Bud development stage, cherry branches C3 ([4]; T3 (21 d)): 5 | Bud development stage, cherry branches C3 ([4]; T4 (27 d)): 5 | Bud development stage, cherry branches C3 ([4]; T5 (36 d)): 5 | Bud development stage, cherry branches C3 ([4]; T6 (56 d)): 5
